In PubChem BioAssay AID588375 (Sanford-Burnham Center for Chemical Genomics, 2011):
Calls of active or inactive are those of the source.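 Rule for the calls: active = IC50 below 100 µM in the TR-FRET assay, unless also active in the caspase-3 counter assay; inactive = the rest, including compounds also active in caspase-3.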

Biological target: Caspase-3 (Homo sapiens) (UniProt P42574)
Assay: caspase-3 inhibitors as false-positive filter, SAR follow-up, counter-screen for UBC13 polyubiquitin inhibitor project, biochemical, luminescence, Caspase-Glo 3/7, set 2 (AID 588375)
Conditions: recombinant caspase-3, Caspase-Glo luminescence, 60 min

Sequence of Caspase-3 (Homo sapiens) (P42574 whole entry, looked up): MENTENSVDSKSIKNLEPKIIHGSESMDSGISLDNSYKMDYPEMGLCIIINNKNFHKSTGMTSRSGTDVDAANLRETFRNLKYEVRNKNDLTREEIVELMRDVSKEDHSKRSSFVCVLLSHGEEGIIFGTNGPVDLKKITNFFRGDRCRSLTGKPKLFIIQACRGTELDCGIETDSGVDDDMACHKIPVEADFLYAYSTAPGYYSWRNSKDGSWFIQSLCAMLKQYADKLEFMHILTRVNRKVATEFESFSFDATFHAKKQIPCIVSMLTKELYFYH

SMILES | IC50
CC1(C)Cc2c(sc(NC(=O)C(=O)NCC3CCCO3)c2C(=O)O)CO1 (configuration not stated) | > 100 µM (inactive)
COC(=O)c1c(NC(=O)C(=O)NCC2CCCO2)sc2c1CC(C)(C)OC2 (configuration not stated) | > 100 µM (inactive)
Cc1cccc(N2CCN(CCCNC(=O)C3CCCN(c4ncnc5c4nc4n5CCCCC4)C3)CC2C)c1 (configuration not stated) | > 100 µM (inactive)
Cc1nc2ccccc2n1C1CCN(CC(=O)Nc2ccccc2Oc2ccccc2)CC1 | > 100 µM (inactive)
O=C(CN1CCC(n2c(C(F)(F)F)nc3cc(F)ccc32)CC1)Nc1ccc2c(c1)OCO2 | > 100 µM (inactive)
O=C(CN1CCC(n2cnc3cc(F)ccc32)CC1)Nc1cccc(C(F)(F)F)c1 | > 100 µM (inactive)
O=C(C1CCN(c2ncnc3c2nc2n3CCCCC2)CC1)N1CCN(c2ccccn2)CC1 | > 100 µM (inactive)
COc1ccccc1N1CCN(CCCNC(=O)C2CCCN(c3ncnc4c3nc3n4CCCCC3)C2)CC1 (configuration not stated) | > 100 µM (inactive)
O=C(c1ccco1)N1CCN(C(=O)C2CCN(c3ncnc4c3nc3n4CCCCC3)CC2)CC1 | > 100 µM (inactive)
COc1ccc(OC)c(NC(=O)CN2CCC(n3cnc4cc(F)ccc43)CC2)c1 | > 100 µM (inactive)
O=C(C1CCN(c2ncnc3c2nc2n3CCCCC2)CC1)N1CCN(c2ccc(F)cc2)CC1 | > 100 µM (inactive)
O=C(C1CCN(c2ncnc3c2nc2n3CCCCC2)CC1)N1CCN(c2ncccn2)CC1 | > 100 µM (inactive)
O=C(NCCCN1CCN(c2ccc(F)cc2)CC1)C1CCCN(c2ncnc3c2nc2n3CCCCC2)C1 (configuration not stated) | > 100 µM (inactive)
CCOc1ccc(NC(=O)CN2CCC(n3cnc4cc(F)ccc43)CC2)cc1 | > 100 µM (inactive)
O=C(C1CCN(c2ncnc3c2nc2n3CCCCC2)CC1)N1CCN(Cc2ccccc2)CC1 | > 100 µM (inactive)
CC1(C)Cc2c(sc(NC(=O)C(=O)N3CCCC3)c2C(N)=O)CO1 | > 100 µM (inactive)
O=C(NCCCN1CCN(c2ccccc2)CC1)C1CCCN(c2ncnc3c2nc2n3CCCCC2)C1 (configuration not stated) | > 100 µM (inactive)
O=C(CN1CCC(n2cnc3cc(C(F)(F)F)ccc32)CC1)Nc1ccc2c(c1)OCCO2 | > 100 µM (inactive)
Cc1ccc(C)c(N2CCN(CCCNC(=O)C3CCCN(c4ncnc5c4nc4n5CCCCC4)C3)CC2)c1 (configuration not stated) | > 100 µM (inactive)
COc1ccc(OC)c(NC(=O)CN2CCC(n3c(C)nc4cc(F)ccc43)CC2)c1 | > 100 µM (inactive)
COc1ccc(NC(=O)CN2CCC(n3c(C)nc4cc(F)ccc43)CC2)c(OC)c1 | > 100 µM (inactive)
Cc1nc2cc(F)ccc2n1C1CCN(CC(=O)Nc2ccccc2)CC1 | > 100 µM (inactive)
Cc1cccc(NC(=O)CN2CCC(n3cnc4cc(F)ccc43)CC2)c1C | > 100 µM (inactive)
O=C(CN1CCC(n2cnc3cc(F)ccc32)CC1)Nc1ccccc1Br | > 100 µM (inactive)
CCOc1ccccc1NC(=O)CN1CCC(n2cnc3cc(F)ccc32)CC1 | > 100 µM (inactive)
CC1(C)Cc2c(sc(NC(=O)C(=O)NCC3CCCO3)c2C(N)=O)CO1 (configuration not stated) | > 100 µM (inactive)
CC1(C)Cc2c(sc(NC(=O)C(=O)NCCN3CCOCC3)c2C(N)=O)CO1 | > 100 µM (inactive)
